US4309343A, “Pharmacologically active peptides” (Eli Lilly and Company, priority 1980, dated 1982)
Values joined by “and” are separate entries in the source; they are usually repeats but may differ in a detail not shown here. Identical values can stand only once. Counter-ions that a name gives are not always drawn.

How the values were obtained:
mouse vas deferens = mouse vas deferens test, electrically evoked twitch; assay type: cell-based; settings: concentration causing depression of 50% of the electrically evoked contraction; field stimulation 0.15 Hz, 1 msec., 40 V; 37° C.
Description: In the mouse vas deferens test, single mouse vas deferens from mature mice (Cox, 30-40 g.) are suspended in 3 ml. of modified Kreb's solution aerated with 95% O2 -5% CO2 and maintained at 37° C. The twitch induced by field stimulation (0.15 Hz, 1 msec., 40 V) is recorded on a polygraph via an isometric transducer. The test compound is added to the bath in 20 to 30 μl. aliquots. A dose-response curve is constructed by cumulative addition of appropriate amounts of the compound to the bath. Comparison of relative agonist potency is made on the basis of IC50 values (concentration causing depression of 50% of the electrically evoked contraction).

mouse (Cox Standard) = assay: mouse hot plate test (mouse jump); assay type: in vivo; settings: subcutaneous injection, 15 minutes after administration, hot plate 52° C., dose producing analgesia in 50% of mice
Description: In the mouse hot plate test, an upright acrylic cylinder comprising, as its base, a hot plate surface which is maintained at 52° C. is used. A mouse (Cox Standard) is given, by subcutaneous injection, a predetermined amount of test compound dissolved or suspended in a suitable carrier, and, 15 minutes after administration of the test compound, the mouse is placed on the hot plate surface. The latency in seconds until the mouse jumps from the hot plate surface is measured. […] This must occur in a dose range which produces no motor incoordination or incapacitation. The following Table records ED50 results obtained from this test. By the term "ED50 " is meant that dose which produces analgesia in 50% of the mice tested. Analgesia is defined as a response latency in the presence of test compound that is equal to or greater than the control response latency plus two standard deviations. The percent analgesia data are converted to probits, and the ED50 is calculated by regression analysis of the dose-response data. Each dose response curve must have at least four points, and each point is determined using data from a minimum of ten treated mice and ten control mice.

mice = settings: cited from earlier work; for analgesic activity upon intracerebroventricular administration: mice, intracerebroventricularly, Buscher et al., Nature, 261, 423 (1976); for analgesic activity when administered parenterally: parenteral administration

Row | Compound | IC50 (mouse vas deferens) | Mouse Jump ED50 (mouse (Cox Standard)) | analgesic activity upon intracerebroventricular administration (mice) | analgesic activity when administered parenterally (mice) | Mouse Jump ED50 (mouse (Cox Standard); Diformate Salt)
1 | CC(=O)O.CC(=O)O.C[C@@H](NC(=O)[C@@H](N)Cc1ccc(O)cc1)C(=O)NCC(=O)N[C@@H](Cc1ccccc1)C(=O)NCCCCNC(=O)[C@H](Cc1ccccc1)NC(=O)CNC(=O)[C@@H](C)NC(=O)[C@@H](N)Cc1ccc(O)cc1 [Example 1, N,N'-1,4-Butanediylbis-[L-tyrosyl-D-alanyl-glycyl-L-phenylalanylamide], Diacetate Salt] | 2.83 nM | 0.370 mg/kg |  |  | 
2 | C[C@@H](NC(=O)[C@@H](N)Cc1ccc(O)cc1)C(=O)NCC(=O)N[C@@H](Cc1ccccc1)C(=O)NCCCCCCCCNC(=O)[C@H](Cc1ccccc1)NC(=O)CNC(=O)[C@@H](C)NC(=O)[C@@H](N)Cc1ccc(O)cc1 [Example 2, N,N'-1,8-Octanediylbis-[L-tyrosyl-D-alanyl-glycyl-L-phenylalanylamide], Diacetate Salt] | 67 nM | > 30 mg/kg |  |  | 
3 | CSCC[C@@H](C(N)=O)N(C)C(=O)[C@H](Cc1ccccc1)NC(=O)CNC(=O)[C@@H](C)NC(=O)[C@@H](N)Cc1ccc(O)cc1 [H--LTyr--DAla--Gly--LPhe--L(N--Me)Met--NH2] | 12.2 nM | 0.363 mg/kg |  |  | 
4 | C[C@@H](NC(=O)[C@@H](N)Cc1ccc(O)cc1)C(=O)NCC(=O)N[C@@H](Cc1ccccc1)C(N)=O [H--LTyr--DAla--Gly--LPhe--NH2] | 189 nM | 0.85 mg/kg |  |  | 
5 | H-Tyr-Gly-Gly-Phe-Leu-OH. [leucine enkephalin] |  |  | exhibit analgesic activity | practically devoid of any useful analgesic activity | 
6 | H-Tyr-Gly-Gly-Phe-Met-OH [methionine enkephalin] |  |  | exhibit analgesic activity | practically devoid of any useful analgesic activity | 
7 | N,N'-1,4-Butanediylbis-[L-tyrosyl-D-alanyl-glycyl-L-phenylalanyl-L-(N^α -methyl)methioninamide], Diformate Salt [Example 4] |  |  |  |  | 5.5 mg/kg and 9.85 mg/kg
